Consider one molecule from patent publication US11419914B2 (Serenity Pharmaceuticals LLC, priority 2009, dated 2022).

The test system of series [1] is adult patients with nocturia. The class given is in vivo, human. The conditions noted are these: 500 and 1000 ng (one or two sprays intranasally). On the procedure: A second separate study in adult patients with nocturia established that doses of 500 and 1000 ng (one or two sprays administered intranasally) produced dramatic therapeutic decreases in the number of night time urinary voids equal to or less than one per night in 41 of 43 patients.

The subject of series [2] is human adult subjects in a water loaded state. Put plainly: Antidiuretic effect (urine output, urine osmolarity, duration) in water loaded subjects. It is filed as in vivo. The method, then:
(§1) The open-label preliminary study of the effects and pharmacokinetics of the prototype dispensers was conducted with six male and six female healthy, water loaded, non-smoking volunteer subjects, following the protocol described generally below. In summary, each subject was dosed up to four times over a period of one week with dosing administered every other day. […] All subjects were screened prior to the first treatment, including evaluations of medical history, complete physical exam including nasopharyngeal exam, serum chemistry including serum osmolality, urinalysis including urine osmolality.
On day one all subjects were asked to have his/her morning void prior to breakfast, and thereafter subjects started the water loading process. […] To achieve a steady state diuresis, the subjects were directed to drink a volume of water corresponding to at least 1.5% and up to 3% of body weight. The water loading process started about two hours prior to the dosing of the first subject. Subjects were asked to void every 20 minutes. To ensure continuous water loaded state, the subjects replaced their urinary output loss with an equivalent amount of fluid. Insensible loss was not measured or replaced. When the urinary output rate exceeded 10 ml/min in two consecutive measurements (defined as water loaded state) in the subjects, dosing began. Subjects were maintained in the water loaded state with equivalent fluid intake versus fluid loss.
Other than the dose level, all procedures were the same as those described for day one.

For series [3] the following is noted: in vivo, cited from earlier work.
The next series in a line: clinical. The note with it: human, in vivo, inhaled or intranasal. On the procedure:
as §1
On day one all subjects were asked to have his/her morning void prior to breakfast, and thereafter subjects started the water loading process. […] Insensible loss was not measured or replaced. […]
Blood sampling for pharmacokinetic determinations was performed at 1, 1.5, 2, 3, 4 and 6 hours post dose. […] A plasma concentration value below the limit of quantitation (“LOQ”) followed by values above the limit was set at ‘LOQ/2’ for the analysis and for the descriptive statistics on concentrations. […]
Assay values below the level of detection that occurred between two non-zero concentrations were considered to be “missing” for purposes of calculating the AUC. […] Accordingly, an average terminal half-life (Avg T1/2) was calculated for each subject that included a treatment with evaluable half-lives in that subject. […]

Read-outs that look alike come from different tables or passages of the source.

The half-life is the time in which the quantity being followed falls by half. The low end stands for rapid decline, the high end for slow decline. For the molecule `NC(=O)CC[C@@H]1NC(=O)[C@H](Cc2ccccc2)NC(=O)[C@H](Cc2ccc(O)cc2)NC(=O)CCSSC[C@@H](C(=O)N2CCC[C@H]2C(=O)N[C@H](CCCN=C(N)N)C(=O)NCC(N)=O)NC(=O)[C@H](CC(N)=O)NC1=O` [desmopressin, 1-desamino-8-D-arginine vasopressin], the “patients with night time urinary voids equal to or less than one per night” value in series [1] was 41 of 43. Further, in series [2] (after 2 μg nasally), the “time urine osmolarity remained greater than about 400 mOsmol/Kg” value was “about 250 minutes”. Further, the “period urine output remained less than 8 ml/minute” value in series [2] (after 2000 ng nasally) is “up to 400 minutes”. Moreover, in series [2] (within 20 minutes after 2000 ng nasally, water loaded men and women), the mean urine output entry is “less than 8 ml/minute”. For the same molecule, the mean urine osmolarity entry in series [2] (within 40 minutes after 2 μg nasally) is given as “greater than 400 mOsmol/kg”. The bioavailability was 3-5% in series [3] (human, inhaled or intranasal) and “far less than one percent” in series [3] (po). Besides, the half life in series [3] (human) was no less than 1.5 h. Moreover, in “clinical” (both sexes, T1/2), the half-life is 1.13 ± 0.3 h. In the series “clinical” (both), this molecule yielded a T1/2 of 1.33 ± 0.56 h.
